Experimental data published in PubChem BioAssay (NCI).
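Assay format: 96-well plates, 48-hour exposure. Abbreviation: GI50, concentration required for 50% inhibition of growth. TGI is the concentration that stops growth completely.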

How the values were obtained:
Test in all cases: growth of human tumour cells (NCI), 48 h
SK-MEL-2 melanoma = test system: SK-MEL-2 melanoma
SW-620 colon = test system: SW-620 colon
K-562 leukemia = test system: K-562 leukemia
NCI-H460 lung = test system: NCI-H460 lung
HOP-62 NSCLC = test system: HOP-62 NSCLC
786-0 renal = test system: 786-0 renal
NCI-H226 lung = test system: NCI-H226 lung
OVCAR-8 ovarian = test system: OVCAR-8 ovarian
LOX IMVI melanoma = test system: LOX IMVI melanoma
HCT-15 colon = test system: HCT-15 colon

SMILES	GI50 (SK-MEL-2 melanoma)	TGI (SK-MEL-2 melanoma)	GI50 (SW-620 colon)	TGI (SW-620 colon)	GI50 (K-562 leukemia)	GI50 (NCI-H460 lung)	TGI (NCI-H460 lung)	GI50 (HOP-62 NSCLC)	TGI (HOP-62 NSCLC)	GI50 (786-0 renal)	TGI (786-0 renal)	GI50 (NCI-H226 lung)	TGI (NCI-H226 lung)	GI50 (OVCAR-8 ovarian)	TGI (OVCAR-8 ovarian)	GI50 (LOX IMVI melanoma)	TGI (LOX IMVI melanoma)	GI50 (HCT-15 colon)	TGI (K-562 leukemia)	TGI (HCT-15 colon)
O=C1c2cccc3cc([N+](=O)[O-])cc(c23)C(=O)N1CCN1CCCC1	1.88 µM	4.45 µM	0.389 µM	5.19 µM	0.534 µM	0.161 µM	0.902 µM	0.312 µM	1.7 µM	0.28 µM	1.2 µM	0.193 µM	0.632 µM	0.566 µM	4.38 µM	0.297 µM	3.27 µM	0.334 µM	–	–
CC(C)Cc1ccc(C(C)/C=C2\CCC(CN3CCCC3)C2=O)cc1 (stereo not drawn)	–	31.8 µM	–	29.7 µM	–	–	37.9 µM	–	26.1 µM	–	3.73 µM	–	33.1 µM	–	18 µM	–	8.49 µM	–	> 100 µM	13.3 µM
O=S(=O)(NCCCNc1cc(-c2cn(-c3ccccc3)nc2-c2cccc(O)c2)ccn1)c1cccc2ccccc12	2.45 µM	6.25 µM	2.75 µM	10 µM	0.614 µM	2.89 µM	10.4 µM	2.45 µM	12.9 µM	1.59 µM	3.57 µM	3.4 µM	45.7 µM	5.46 µM	> 100 µM	1.56 µM	3.29 µM	1.8 µM	4.48 µM	6.59 µM
C=CCCC(C)N(C(=O)OC(C)(C)C)S(=O)(=O)c1ccc(C)cc1 (stereo not drawn)	–	> 100 µM	–	> 100 µM	–	–	> 100 µM	–	> 100 µM	–	> 100 µM	–	> 100 µM	–	> 100 µM	–	> 100 µM	–	> 100 µM	> 100 µM
CC(=O)Nc1ccc2oc(=O)c3ccccc3c2c1	–	> 100 µM	–	> 100 µM	–	–	> 100 µM	–	> 100 µM	–	> 100 µM	–	> 100 µM	–	> 100 µM	–	> 100 µM	–	> 100 µM	> 100 µM
N/C(=N\c1nc2ccccc2s1)NC(=O)Nc1ccccc1Cl	3.24 µM	> 61.3 µM	0.0883 µM	> 52.3 µM	0.0366 µM	0.149 µM	10.4 µM	0.19 µM	26.7 µM	0.184 µM	10.4 µM	0.429 µM	19.2 µM	0.179 µM	25.1 µM	0.144 µM	5.92 µM	0.0643 µM	> 43.5 µM	18.9 µM
O=C1/C(=C/c2ccccc2)CN(CCC(=O)N2C/C(=C\c3ccccc3)C(=O)/C(=C/c3ccccc3)C2)C/C1=C\c1ccccc1	17.5 µM	38.1 µM	0.495 µM	49.8 µM	0.494 µM	35.9 µM	> 100 µM	19.2 µM	49.1 µM	9.8 µM	32.9 µM	12.7 µM	41.3 µM	5.4 µM	> 100 µM	0.628 µM	4.32 µM	0.906 µM	> 100 µM	45.1 µM
N=C1C(c2nc3ccccc3s2)=C(O)CN1c1ccc(Cl)cc1Cl	27.6 µM	96.6 µM	36.7 µM	> 100 µM	10.7 µM	33.4 µM	> 100 µM	13.9 µM	38 µM	16.9 µM	48.2 µM	16.9 µM	40.7 µM	18.2 µM	47.1 µM	14.8 µM	41.2 µM	3.65 µM	64.5 µM	22 µM
CC(=O)NC1C(OCc2ccccc2)OC(COC(=O)CCCCCNc2ccc([N+](=O)[O-])c3[nH]c4ccc(O)cc4c(=O)c23)C(O)C1OC(C)C(=O)N[C@@H](C)C(=O)N[C@H](CCC(=O)OCc1ccccc1)C(N)=O (stereo partly drawn)	–	3.98 µM	–	4.42 µM	–	–	4.33 µM	–	22.7 µM	–	14.3 µM	–	12.3 µM	–	10.8 µM	–	10.7 µM	–	> 100 µM	3.67 µM
COc1cc([C@@H]2c3cc4c(cc3[C@@H](NCc3ccc(C#N)cc3)C3COC(=O)[C@@H]32)OCO4)cc(OC)c1O (stereo partly drawn)	–	6.54 µM	–	3.44 µM	–	–	1.77 µM	–	1.41 µM	–	2.32 µM	–	2.26 µM	–	3.01 µM	–	4.36 µM	–	15.9 µM	3.01 µM
C[C@]12CC(C#N)C(=O)C(O)=C1CC[C@@H]1C2CC[C@@]2(C)C1CC[C@@H]2O (stereo partly drawn)	–	> 100 µM	–	> 100 µM	–	–	> 100 µM	–	> 100 µM	–	> 100 µM	–	> 100 µM	–	> 100 µM	–	> 100 µM	–	> 100 µM	> 100 µM
CC(C)c1cccc(C(C)C)c1N=C(N)C#N	–	> 100 µM	–	58.5 µM	–	–	> 62.5 µM	–	> 100 µM	–	> 61.3 µM	–	> 100 µM	–	> 100 µM	–	> 56.2 µM	–	> 61.7 µM	> 58.2 µM
